In patent publication US11033631B2, “Methods of treating CYP2D6 alternative metabolizers” (Nektar Therapeutics, priority 2008, dated 2021):
Structures can show the parent of a compound that is named as a salt. Where two headings read alike, the source gives them in different places.

Key:
CYP2D6 [1] = target: T1, CYP2D6 (Homo sapiens, UniProt P10635); test: biochemical
CYP3A4 [2] = target: T2, CYP3A4 (Homo sapiens, UniProt P08684); test: Microsomal inhibition study, inhibition of midazolam metabolism (Example 1); settings: read-out: 3A4 Affinity (IC50), Table 2
CYP2D6 [3] = target: T1, CYP2D6
CYP2D6 [4] = target: T1, CYP2D6; test: Microsomal inhibition study, inhibition of bufuralol metabolism (Example 1); settings: read-out: 2D6 Affinity (IC50), Table 2
Text: The degree of a given molecule's metabolism by and affinity for CYP2D6 and other CYP isoforms may be assessed by any techniques known in the art, including through the use of Bactosomes™ or by microsomal inhibition studies. In vitro metabolism studies using Bactosomes™ expressing individual human CYP isoforms monitor the extent to which a test compound is metabolized by a single CYP450 enzyme and allow identification of the CYP isoforms that may be responsible for the metabolism of a test compound. […] These techniques can be used to assess the metabolism and affinity of not only the unconjugated version of a CYP2D6 bioactive drug but conjugated versions as well.

CYP3A4 [5] = target: T2, CYP3A4; settings: microsomes
CYP3A4 [6] = target: T2, CYP3A4
[7] = read-out: CYP2D6 Inhibition of dextromethorphan O-demethylation IC50, human liver microsomes 0.1 mg/mL, test compound 0.1-25 μM, 5 minutes
[8] = read-out: CYP3A4 Inhibition of testosterone 6β-hydroxylation IC50, human liver microsomes 0.1 mg/mL, test compound 0.1-25 μM, 5 minutes

T2 sequence (P08684 whole entry): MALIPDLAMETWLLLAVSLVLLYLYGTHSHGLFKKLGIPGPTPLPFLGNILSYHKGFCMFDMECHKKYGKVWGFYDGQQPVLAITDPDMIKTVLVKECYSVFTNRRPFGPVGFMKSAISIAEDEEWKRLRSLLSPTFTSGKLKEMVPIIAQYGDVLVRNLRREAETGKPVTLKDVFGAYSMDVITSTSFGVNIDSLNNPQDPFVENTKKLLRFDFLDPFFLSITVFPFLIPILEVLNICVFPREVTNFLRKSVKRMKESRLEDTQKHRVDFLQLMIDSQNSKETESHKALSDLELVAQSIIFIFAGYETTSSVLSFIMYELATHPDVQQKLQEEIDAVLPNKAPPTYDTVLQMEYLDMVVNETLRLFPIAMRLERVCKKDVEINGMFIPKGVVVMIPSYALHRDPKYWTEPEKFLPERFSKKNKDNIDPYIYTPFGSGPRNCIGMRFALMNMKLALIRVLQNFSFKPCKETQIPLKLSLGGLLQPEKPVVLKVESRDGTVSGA
T1 sequence (P10635 whole entry): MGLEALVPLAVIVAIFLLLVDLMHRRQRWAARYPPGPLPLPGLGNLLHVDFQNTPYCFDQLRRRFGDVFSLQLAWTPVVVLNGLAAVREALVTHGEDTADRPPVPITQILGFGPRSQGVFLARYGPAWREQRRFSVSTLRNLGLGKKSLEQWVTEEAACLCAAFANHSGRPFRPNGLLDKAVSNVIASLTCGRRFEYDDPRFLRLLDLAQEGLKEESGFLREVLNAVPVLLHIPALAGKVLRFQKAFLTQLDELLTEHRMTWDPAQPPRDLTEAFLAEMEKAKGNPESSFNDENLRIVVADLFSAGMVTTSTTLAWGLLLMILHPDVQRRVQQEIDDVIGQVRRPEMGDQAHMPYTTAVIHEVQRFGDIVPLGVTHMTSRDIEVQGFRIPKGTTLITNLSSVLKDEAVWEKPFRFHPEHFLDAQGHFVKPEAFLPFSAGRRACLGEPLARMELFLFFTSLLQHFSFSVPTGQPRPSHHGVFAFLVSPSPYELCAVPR

Question: Which IC50 (CYP2D6 [1]) does the source give for N=C(N)N1CCc2ccccc2C1 [Debrisoquine sulfate] here?
Answer: Its IC50 is 19.5 µM.

Question: For COCCOCCOCCOCCOCCN1CCN(C(c2ccccc2)c2ccc(Cl)cc2)CC1 (stereo not drawn) [PEG-3-HZ, mPEG3-hydroxyzine], which IC50 (CYP3A4 [2]) is on record?
Answer: The IC50 was 17.8 µM.

Question: And the IC50 (CYP2D6 [3]; [7])?
Answer: The IC50 was 9.7 µM.

Question: What about the IC50 (CYP2D6 [4]) of the same molecule?
Answer: The IC50 was 10.3 µM.

Question: Which results are given for COCCOCCOCCOCCOCCOCCOCCN1CCN(C(c2ccccc2)c2ccc(Cl)cc2)CC1 (stereo not drawn) [PEG-5-HZ, mPEG5-hydroxyzine]?
Answer: IC50 (CYP3A4 [5]): 7.9 µM; IC50 (CYP3A4 [2]): 15.4 µM; IC50 (CYP2D6 [3]; [7]): 11.5 µM; IC50 (CYP2D6 [4]): 11.7 µM; IC50 (CYP3A4 [6]; [8]): > 25 µM

Question: How did the IC50 (CYP3A4 [5]) turn out when CC(C)NCC(O)COc1cccc2ccccc12 (stereo not drawn) [Propranolol hydrochloride, reference compound] was run?
Answer: Its IC50 is > 25 µM.

Question: And the IC50 (CYP2D6 [3]; microsomes)?
Answer: Its IC50 is 7.5 µM.

Question: And the IC50 (CYP3A4 [6]; microsomes)?
Answer: Its IC50 is 13.1 µM.

Question: Which results are given for COCCOCCOCCN(C)CCOC(c1ccccc1)c1ccccc1 [mPEG3-N-diphenhydramine]?
Answer: IC50 (CYP3A4 [5]): 16.4 µM; IC50 (CYP2D6 [3]; microsomes): 2.6 µM; IC50 (CYP3A4 [6]; [8]): > 25 µM

Question: COCCOCCOCCNCCCN1c2ccccc2CCc2ccccc21 [mPEG3-NH-desipramine] was tested. Which IC50 (CYP3A4 [5]) did it give?
Answer: The IC50 was 17.9 µM.

Question: What about the IC50 (CYP2D6 [3]; [7]) of the same molecule?
Answer: The IC50 was 1.47 µM.

Question: What about the IC50 (CYP3A4 [6]; [8]) of the same molecule?
Answer: Its IC50 is > 25 µM.

Question: Which results are given for COCCOCCOCCOCCN(C)CCOC(c1ccccc1)c1ccccc1 [mPEG4-N-diphenhydramine]?
Answer: IC50 (CYP3A4 [5]): 13.1 µM; IC50 (CYP2D6 [3]; microsomes): 9.2 µM; IC50 (CYP3A4 [6]; [8]): > 25 µM

Question: What does the source list for COCCOCCOCCOCCOCCOCCOCCNCCCN1c2ccccc2CCc2ccccc21 [mPEG7-NH-desipramine]?
Answer: IC50 (CYP3A4 [5]): 9.51 µM; IC50 (CYP2D6 [3]; [7]): > 25 µM; IC50 (CYP3A4 [6]; [8]): > 25 µM
